Experimental data published in US20200165194A1, “ADDITIVE COMPOSITION FOR CULTURE MEDIUM, ADDITIVE COMPOUND FOR CULTURE MEDIUM, AND METHOD FOR CULTURE OF CELLS OR TISSUE USING SAME” (NISSAN CHEMICAL CORPORATION, priority 2017, published 2020).
Like-named read-outs stand apart in the source and are kept apart here.

Legend:
[1] = test system: SKOV3 cells (human ovarian cancer-derived cell line); assay: Cell proliferation activity in three-dimensional medium FCeM, ATP assay (Experimental Example 1); type: cell-based; details: SKOV3, 3D medium FCeM, 4 days, DMSO control = 100%, average of two tests; for proliferation rate (%): compound 5 μM
Experimental: A cell proliferation promoting effect when the compound to be used in the present invention was added to a three-dimensional medium was studied. Specifically, precultured (adhesion cultured) SKOV3 cells (human ovarian cancer-derived cell line) were recovered and suspended in a three-dimensional cell culture medium (“FCeM (registered trade mark)” (Nissan chemical corporation)) to prepare a cell suspension. […] The cell suspension seeded in the plate was stood overnight at 37° C., 5% CO2. Then, a DMSO diluted solution (4.44 μL) of the compound to be used in the present invention was added at a final concentration of 5 μM (or two steps of […] and 10 μM) (no stirring after addition). After addition of each compound, the mixtures were stood for 4 days at 37° C., 5% CO2. […] The luminescence intensity (RLU value) was measured by FlexStation3 (manufactured by Molecular Devices), and cell proliferation was evaluated.
The proliferation rate was calculated based on the control (cells added with DMSO without containing the compound to be used in the present invention) as the standard (100%). The values shown in the tables are average values of the results of two tests.

[2] = test system: human ovarian cancer cell line SKOV3; assay: Action on SKOV3 cell-2: 3D (deacylated gellan gum) and 2D culture, EGF medium, ATP assay (Experimental Example 3); details: for viability at 1 µM / viability at 5 µM / viability at 10 µM / viability at 20 µM: Homo sapiens, SK-OV-3, 96 h; for viability at 1 µM / viability at 5 µM / viability at 10 µM / viability at 20 µM / relative value of RLU (number of viable cells): 4 days, compound non-addition = 100%
Experimental: According to the method of patent document 1 (WO 2014/017513), a composition of McCoy's 5a medium (manufactured by Sigma-Aldrich) containing 0.015% (w/v) deacylated gellan gum (KELCOGEL CG-LA, manufactured by Sansho Co., Ltd.) and 15% (v/v) FBS, 30 ng/mL human EGF (manufactured by PEPROTECH) was prepared using FCeM-series Preparation Kit (manufactured by Wako Pure Chemical Industries, Ltd.). In a single layer culture, a non-addition medium composition not containing deacylated gellan gum was prepared. Then, human ovarian cancer cell line SKOV3 (manufactured by DS PHARMA BIO MEDICAL) was suspended in the above-mentioned medium composition added with deacylated gellan gum, and dispensed into the wells of a 384 well flat bottom Ultr-low Attachment surface microplate (manufactured by Corning Incorporated, #3827) at 1000 cells/36 μL/well (three-dimensional culture (3D)). In a single layer culture (2D), human ovarian cancer cell line SKOV3 was suspended in the above-mentioned medium composition not containing deacylated gellan gum, and dispensed into the wells of a 384 well flat bottom microplate (manufactured by Corning Incorporated, #3712) at 400 cells/36 μL per well. After dispensing, the compound to be used in the present invention dissolved in dimethyl sulfoxide (DMSO) was added by 4 μL each at a final concentration of 0, 1, 5, 10, 20 μM, and continuously cultured for 4 days. Each plate was cultured in a standing state in a CO2 incubator (37° C., 5% CO2) for 4 days. An ATP reagent (40 μL) (CellTiter-Glo (registered trade mark) Luminescent Cell Viability Assay, manufactured by Promega) was added to the culture medium on day 4, and the mixture was stirred by a plateshaker (manufactured by AS ONE Corporation, Micro plate mixer NS-P) at room temperature for 15 min. The luminescence intensity (RLU value) was measured by EnSpire (manufactured by Perkin Elmer) and the luminescence value of the medium alone was subtracted to measure the number of viable cells.

hiPS cell line 253G1 = assay: Human pluripotent stem cell (hiPS cell), EZSPHERE plate, ATP assay (Experimental Example 13); type: cell-based
Experimental: hiPS cell line 253G1 (purchased from RIKEN) was cultured on a dish coated with vitronectin VTN-N (manufactured by Thermo Fisher Scientific) using mTeSR1 (registered trade mark) medium (manufactured by STEMCELL Technologies). The above-mentioned cells in the proliferation phase were washed with PBS (manufactured by Fujifilm Corporation Wako Pure Chemical Industries, Ltd.), TrypLE Select (registered trade mark) (manufactured by Thermo Fisher Scientific) was added and the mixture was incubated at 37° C. for 3 min to remove the detaching solution. The medium was added and the cells were detached by pipetting. Thereafter, the supernatant was removed by centrifugation.
The aforementioned cells were suspended in a medium containing 10 μM Y-27632 (manufactured by Fujifilm Corporation Wako Pure Chemical Industries, Ltd.) and seeded in a 96-well EZSPHERE plate (manufactured by AGC TECHNO GLASS CO., LTD., #4860-900) at a cell concentration of 10000 cells/200 μL/well. […] The amount of each compound solution to be added was 2 μL/well. As a control, a DMSO solution dissolved in a medium was added (DMSO final concentration 0.05%). The medium was exchanged by half the volume every day, and each compound solution was also added to make the compound concentration constant.

[3] = single layer culture (2D) of SKOV3 cells
[4] = three-dimensional culture (3D) of SKOV3 cells
[5] = 3D culture (deacylated gellan gum), 1 μM
[6] = 3D culture (deacylated gellan gum), 5 μM
[7] = 3D culture (deacylated gellan gum), 10 μM
[8] = 3D culture (deacylated gellan gum), 20 μM

Compound: CCOc1ccc(NCC(=O)NN=C(CC)c2c(O)cc(O)c(C)c2O)cc1 [k-3:H-9]
- proliferation rate (%) [1]: 129.93%

Compound: Cc1ccccc1NCC(=O)NN=C(CC(C)C)c1ccc(O)c(C)c1O [k-5:H-2]
- proliferation rate (%) [1]: 133.96%

Compound: Cc1ccc(NCC(=O)NN=C(CC(C)C)c2ccc(O)c(C)c2O)cc1 [k-5:H-4]
- proliferation rate (%) [1]: 114.76%

Compound: CCC(=NNC(=O)CNc1ccc(F)cc1)c1c(O)cc(O)c(C)c1O [k-3:H-5]
- proliferation rate (%) [1]: 141.82%

Compound: CC/C(=N\NC(=O)OCc1cccc(O)c1)c1ccc(O)c(C)c1O [k-1:N-1]
- viability at 1 µM ([2]; read-out: relative value of RLU (number of viable cells), 2D single layer culture, 1 μM): 101%
- viability at 5 µM ([2]; read-out: relative value of RLU (number of viable cells), 2D single layer culture, 5 μM): 94%
- viability at 10 µM ([2]; read-out: relative value of RLU (number of viable cells), 2D single layer culture, 10 μM): 89%
- viability at 20 µM ([2]; read-out: relative value of RLU (number of viable cells), 2D single layer culture, 20 μM): 84%
- viability at 1 µM ([2]; read-out: relative value of RLU (number of viable cells), 3D culture (deacylated gellan gum), 1 μM): 101%
- viability at 5 µM ([2]; read-out: relative value of RLU (number of viable cells), 3D culture (deacylated gellan gum), 5 μM): 134%
- viability at 10 µM ([2]; read-out: relative value of RLU (number of viable cells), 3D culture (deacylated gellan gum), 10 μM): 169%
- viability at 20 µM ([2]; read-out: relative value of RLU (number of viable cells), 3D culture (deacylated gellan gum), 20 μM): 186%
- cell proliferation promoting effect (in words) [2, 3]: a favorable cell proliferation promoting effect was not observed
- cell proliferation promoting effect (in words) [2, 4]: exhibited cell proliferation promoting effect at a wide concentration range

Compound: CCC(=NNC(=O)CNc1ccccc1C)c1ccc(O)c(C)c1O [k-1:H-2]
- proliferation rate (%) [1]: 147.27%

Compound: CC(=NNC(=O)CNc1cccc2ccccc12)c1ccc(O)c(C)c1O [k-2:H-6]
- proliferation rate (%) [1]: 116.79%

Compound: CCOc1ccc(NCC(=O)NN=C(C)c2ccc(O)c(C)c2O)cc1 [k-2:H-9]
- proliferation rate (%) [1]: 131.36%

Compound: Cc1cccc(NCC(=O)NN=C(CC(C)C)c2ccc(O)c(C)c2O)c1 [k-5:H-3]
- proliferation rate (%) [1]: 146.44%

Compound: CCC(=NNC(=O)CNc1cccc(C)c1)c1c(O)cc(O)c(C)c1O [k-3:H-3]
- proliferation rate (%) [1]: 134.65%

Compound: CCOc1ccc(NCC(=O)NN=C(CC(C)C)c2ccc(O)c(C)c2O)cc1 [k-5:H-9]
- proliferation rate (%) [1]: 38.38%

Compound: CCOC(=O)C/N=C(\CC)c1ccc(O)c(C)c1O [k-1:A-1]
- proliferation rate (%) (5 μM) [1]: 119.1%
- proliferation rate (%) (10 μM) [1]: 119.4%

Compound: CC/C(=N\C(=O)Nc1ccccc1)c1ccc(O)c(C)c1O [k-1:A-5]
- proliferation rate (%) (5 μM) [1]: 113%
- proliferation rate (%) (10 μM) [1]: 124.3%

Compound: Cc1c(O)ccc(C(CC(C)C)=NNC(=O)CNc2cccc3ccccc23)c1O [k-5:H-6]
- proliferation rate (%) [1]: 115.2%

Compound: CC/C(=N\CC(=O)OCc1ccccc1)c1ccc(O)c(C)c1O [k-1:A-2]
- proliferation rate (%) (5 μM) [1]: 118.8%
- proliferation rate (%) (10 μM) [1]: 129.4%

Compound: CCC(=NNC(=O)CNc1ccccc1C)c1c(O)cc(O)c(C)c1O [k-3:H-2]
- proliferation rate (%) [1]: 117.84%

Compound: CC(=NNC(=O)CNc1ccc(C)cc1)c1ccc(O)c(C)c1O [k-2:H-4]
- proliferation rate (%) [1]: 128.2%

Compound: CCC(=NNC(=O)CNc1ccccc1)c1c(O)cc(O)c(C)c1O [k-3:H-1]
- proliferation rate (%) [1]: 133.76%

Compound: CCC(=NNC(=O)CNc1cccc2ccccc12)c1c(O)cc(O)c(C)c1O [k-3:H-6]
- proliferation rate (%) [1]: 134.6%

Compound: CCC(=NNC(=O)CNc1ccc(C)cc1)c1c(O)cc(O)c(C)c1O [k-3:H-4]
- proliferation rate (%) [1]: 135.5%

Compound: CCC(Nc1ccccc1)C(=O)NN=C(CC(C)C)c1ccc(O)c(C)c1O (stereo not shown) [k-5:H-7]
- proliferation rate (%) [1]: 130.63%

Compound: Cc1c(O)ccc(C(CC(C)C)=NNC(=O)CNc2ccc(F)cc2)c1O [k-5:H-5]
- proliferation rate (%) [1]: 145.4%

Compound: CC(=NNC(=O)CNc1ccccc1)c1ccc(O)c(C)c1O [k-2:H-1]
- proliferation rate (%) [1]: 184.61%

Compound: Cc1c(O)ccc(C(CC(C)C)=NNC(=O)CNc2ccccc2)c1O [k-5:H-1]
- proliferation rate (%) [1]: 148.88%

Compound: CCC(=NNC(=O)C(CC)Nc1ccccc1)c1c(O)cc(O)c(C)c1O (stereo not shown) [k-3:H-7]
- proliferation rate (%) [1]: 126.34%

Compound: CCOc1ccc(NCC(=O)NN=C(CC)c2ccc(O)c(C)c2O)cc1 [k-1:H-9]
- proliferation rate (%) [1]: 95.96%

Compound: CCC(=NNC(=O)CNc1cccc2ccccc12)c1ccc(O)c(C)c1O [k-1:H-6]
- proliferation rate (%) [1]: 125.68%

Compound: CCC(Nc1ccccc1)C(=O)NN=C(C)c1ccc(O)c(C)c1O (stereo not shown) [k-2:H-7]
- proliferation rate (%) [1]: 201.93%

Compound: CCC(=NNC(=O)CNc1ccc(O)cc1)c1ccc(O)c(C)c1O [k-1:D-2]
- relative value of RLU (number of viable cells) ([2]; 2D single layer culture, 1 μM): 101%
- relative value of RLU (number of viable cells) ([2]; 2D single layer culture, 5 μM): 94%
- relative value of RLU (number of viable cells) ([2]; 2D single layer culture, 10 μM): 82%
- relative value of RLU (number of viable cells) ([2]; 2D single layer culture, 20 μM): 59%
- relative value of RLU (number of viable cells) [2, 5]: 116%
- relative value of RLU (number of viable cells) [2, 6]: 129%
- relative value of RLU (number of viable cells) [2, 7]: 143%
- relative value of RLU (number of viable cells) [2, 8]: 126%
- cell proliferation promoting effect (in words) [2, 3]: a favorable cell proliferation promoting effect was not observed
- cell proliferation promoting effect (in words) [2, 4]: exhibited cell proliferation promoting effect at a wide concentration range

Compound: CC(=NNC(=O)CNc1cccc(C)c1)c1ccc(O)c(C)c1O [k-2:H-3]
- proliferation rate (%) [1]: 139.33%

Compound: CCC(=NNC(=O)NC(C)c1cccc(O)c1)c1ccc(O)c(C)c1O (stereo not shown) [k-1:I-10]
- relative value of RLU (number of viable cells) ([2]; 2D single layer culture, 1 μM): 99%
- relative value of RLU (number of viable cells) ([2]; 2D single layer culture, 5 μM): 98%
- relative value of RLU (number of viable cells) ([2]; 2D single layer culture, 10 μM): 99%
- relative value of RLU (number of viable cells) ([2]; 2D single layer culture, 20 μM): 100%
- relative value of RLU (number of viable cells) [2, 5]: 100%
- relative value of RLU (number of viable cells) [2, 6]: 135%
- relative value of RLU (number of viable cells) [2, 7]: 181%
- relative value of RLU (number of viable cells) [2, 8]: 197%
- cell proliferation promoting effect (in words) [2, 3]: a favorable cell proliferation promoting effect was not observed
- cell proliferation promoting effect (in words) [2, 4]: exhibited cell proliferation promoting effect at a wide concentration range
- relative value (%) (hiPS cell line 253G1; hiPS 253G1, EZSPHERE plate, 5 μM, 3 days, RLU of DMSO addition = 100%): 194%
- proliferation activity (in words) (hiPS cell line 253G1; human pluripotent stem cells under three-dimensional conditions): promoted proliferation activity in human pluripotent stem cells

Compound: CCC(=NNC(=O)CNc1cccc(C)c1)c1ccc(O)c(C)c1O [k-1:H-3]
- proliferation rate (%) [1]: 168.98%

Compound: CC(=NNC(=O)CNc1ccccc1C)c1ccc(O)c(C)c1O [k-2:H-2]
- proliferation rate (%) [1]: 131.13%

Compound: CCCCCCCC/N=C(\CC)c1ccc(O)c(C)c1O [k-1:A-3]
- proliferation rate (%) (5 μM) [1]: 118.1%
- proliferation rate (%) (10 μM) [1]: 112.6%

Compound: CCC(=NNC(=O)CNc1ccc(C)cc1)c1ccc(O)c(C)c1O [k-1:H-4]
- proliferation rate (%) [1]: 105.07%

Compound: CC(=NNC(=O)CNc1ccc(F)cc1)c1ccc(O)c(C)c1O [k-2:H-5]
- proliferation rate (%) [1]: 158.56%

Compound: CCC(=NNC(=O)CNc1ccc(F)cc1)c1ccc(O)c(C)c1O [k-1:H-5]
- proliferation rate (%) [1]: 154.19%
